This note sets out measurements from ChEMBL document CHEMBL1201862, “PubChem BioAssay data set” (2004).

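Five concentrations, 48 hours, 96-well plates. At the GI50, growth is halved.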 Calls of active or inactive are those of the source. Rule as the data show it: active = GI50 up to about 1.1 µM and inactive = higher. A value given as a limit tells only on which side of the number the result lay.

Test in all cases: growth of human tumour cells (NCI), 48 h
Assay [1] relates to 786-0.
Assay [2] deals with A549.
For assay [3], the system named is EKVX.
The test system of assay [4] is HCC 2998.
The test system of assay [5] is HOP-92.
Assay [6] concerns HT-29.
In assay [7] the test system is LOX IMVI.
Assay [8] concerns Malme-3M.
Assay [9] has as its system NCI-H226.
In assay [10] the test system is NCI-H23.
For assay [11], the system named is NCI-H522.
Assay [12] relates to NCI/ADR-RES.
Assay [13] concerns PC-3.
Assay [14] concerns SF-268.
Assay [15] deals with SK-OV-3.
Assay [16] deals with SN12C.
Assay [17] relates to T47D.
Assay [18] deals with TK-10.
Assay [19] has as its system U-251.
The subject of assay [20] is UO-31.

`COC(=O)C1(Cc2ccccc2)Cc2ccc3c(c2C1=O)CCC3` (stereo not given): the GI50 in assay [1] was 33.7 µM (inactive); in assay [2], 46.3 µM (inactive); in [3], 13.1 µM (inactive); in assay [4], 38.1 µM (inactive); in assay [5], 20.8 µM (inactive); in assay [6] it was 29 µM (inactive). Moreover, the GI50 in [7] was 39.3 µM (inactive); in [8], 14.2 µM (inactive); in assay [9], > 55.6 µM (inactive); in [10] it was 32.2 µM (inactive); in assay [11], 20.8 µM (inactive); in assay [12], 23.7 µM (inactive). The GI50 is 26.1 µM (inactive) in [13]; > 66.5 µM (inactive) in assay [14]; > 80.4 µM (inactive) in [15]; 44.4 µM (inactive) in assay [16]; 11.5 µM (inactive) in assay [17]; > 47.5 µM (inactive) in [18]. Further, the GI50 in [19] is 36.1 µM (inactive); in [20] it was 18 µM (inactive).

Regarding `O=C(CN1CCCC1)Nc1ccc2c(c1)C1Oc3ccccc3CC1CO2` (stereo not given), the GI50 in [1] is 24.7 µM (inactive); in assay [2] it was 41.7 µM (inactive); in assay [3], 69.3 µM (inactive); in [4], 16.8 µM (inactive); in assay [5], 16.7 µM (inactive); in assay [6], > 10 µM (inactive). For the same compound, the GI50 in [7] was 21.4 µM (inactive); in assay [8] it was 16.7 µM (inactive); in assay [9], > 100 µM (inactive); in [10], 38.5 µM (inactive); in assay [11], 32.4 µM (inactive); in assay [12], 73.3 µM (inactive). Also, the GI50 in assay [13] is 24.8 µM (inactive); in [14], 67 µM (inactive); in assay [15], > 100 µM (inactive); in assay [16] it was > 100 µM (inactive); in assay [17], 40.1 µM (inactive); in assay [18], 49 µM (inactive). The GI50 in assay [19] was 21.2 µM (inactive); in [20], 22.1 µM (inactive).

For `O=[N+]([O-])C(=C(\Cl)NCCO)/C(Cl)=C(/Cl)Br`, the GI50 was 1.19 µM (inactive) in [1]; 7.91 µM (inactive) in [2]; 4.85 µM (inactive) in assay [3]; 3.33 µM (inactive) in assay [4]; 1.56 µM (inactive) in assay [5]; 1.83 µM (inactive) in assay [6]. The GI50 was 0.885 µM (active) in [7]; 1.62 µM (inactive) in assay [8]; 6.73 µM (inactive) in assay [9]; 2.9 µM (inactive) in assay [10]; 1.1 µM (active) in assay [11]; 2.34 µM (inactive) in [12]. The GI50 is 2.62 µM (inactive) in assay [13]; 1.62 µM (inactive) in assay [14]; 15 µM (inactive) in assay [15]; 1.98 µM (inactive) in [16]; 1.74 µM (inactive) in assay [17]; 2.16 µM (inactive) in assay [18]. For the same compound, the GI50 in [19] is 2.04 µM (inactive); in [20], 2.79 µM (inactive).
